For this assay, the system named is human umbilical vein endothelial cells (HUVEC). Briefly: HUVEC proliferation assay. It is filed as cell-based. As to conditions: for inhibition at 0.01 µM / inhibition at 0.05 µM / inhibition at 0.001 µM / inhibition at 0.15 µM: Homo sapiens, HUVEC; for inhibition at 0.01 µM: 10 nM; for inhibition at 0.05 µM: 50 nM; for inhibition at 0.001 µM: 1 nM; for inhibition at 0.15 µM / % inhibition @ 150 nM: Table I screening results, 150 nM. The essentials: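 Readout was MTT dye reduction (A595) after 72 h of stimulation with VEGF at 6 ng/ml final. Compound, in 0.1% DMSO final, was added 1 h before VEGF to HUVEC starved 24 h in 1% FBS. % inhibition was scaled between VEGF-alone and unstimulated wells; IC50 was fitted from triplicate dose curves.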

Setting [1] is: crude combinatorial urea library, read-out: Inhibition of HUVEC Proliferation % inhibition @ 10 nM.
Setting [2] is: crude combinatorial urea library, read-out: Inhibition of HUVEC Proliferation % inhibition @ 50 nM.
Where [3] appears, read: Table II screening results, crude combinatorial amide library.
[4] abbreviates: Table II screening results, crude combinatorial amide library, read-out: % inhibition @ 10 nM.
[5] abbreviates: table following Table II (untitled), crude combinatorial library.
Where [6] appears, read: table following Table II (untitled), crude combinatorial library, read-out: % inhibition @ 10 nM.
Where [7] appears, read: Inhibition of HUVEC Proliferation, crude combinatorial urea library, read-out: % inhibition @ 50 nM.
The mark [8] stands for this setting: crude combinatorial amide library.
Setting [9] is: Inhibition of HUVEC Proliferation, crude combinatorial urea library, read-out: Inhibition @ 50 nM.

Like-named read-outs stand apart in the source and are kept apart here.

With `COc1cccc(C(=O)Nc2cccc(-c3csc(-c4sc(NC(=O)NCCNc5ccccc5)nc4N)n3)c2)c1`, the inhibition at 0.01 µM under setting [1] is 28%. Besides, the inhibition at 0.05 µM under setting [2] was found to be 62%.
Consider `CNC(=O)Nc1nc(N)c(-c2nc(-c3cccc(NC(=O)c4ccc(C(C)=O)s4)c3)cs2)s1`, for which, under setting [3], the inhibition at 0.001 µM was found to be 49%. Further, the inhibition at 0.01 µM under setting [4] stood at 97%.
As to `COc1cc(Nc2nc(N)c(-c3nc(-c4cc(NC(=O)c5ccc(C(C)=O)s5)ccc4C)no3)s2)cc(OC)c1OC`, under setting [5], the inhibition at 0.001 µM was found to be 35%. The inhibition at 0.01 µM under setting [6] was found to be 93%.
In the case of `COc1cccc(C(=O)Nc2cc(-c3csc(-c4sc(NC(=O)NCC#N)nc4N)n3)c(F)cc2F)c1`, under setting [7], the inhibition at 0.05 µM stood at 71%.
Turning to `CNC(=O)Nc1nc(N)c(-c2nc(-c3cccc(NC(=O)C4CC4C)c3)cs2)s1` (stereo not drawn), under setting [3], the inhibition at 0.001 µM is -12%. For the same molecule, the inhibition at 0.01 µM under setting [4] amounted to 0%.
The matching figures for `CNC(=O)Nc1nc(N)c(-c2nc(-c3cccc(NC(=O)C(=O)C4=CCCCC4)c3)cs2)s1`: 17% and 19%.
On to `COc1cc(Nc2nc(N)c(-c3nc(-c4cccc(NC(=O)CCc5nc6ccccc6[nH]5)c4)cs3)s2)cc(OC)c1OC`, for which the inhibition at 0.15 µM under setting [8] worked out at 27%.
Consider `COc1cccc(C(=O)Nc2cc(-c3noc(-c4sc(NC(=O)NCP(=O)(O)O)nc4N)n3)c(F)cc2F)c1`, for which, under setting [9], the inhibition at 0.05 µM worked out at 4%.
The same measure, in the same setting: in the case of `COc1cccc(C(=O)Nc2cc(-c3noc(-c4sc(NC(=O)NC5CCN(Cc6ccccc6)CC5)nc4N)n3)c(F)cc2F)c1` it was 82%; in that of `CCN1CCCC1CNC(=O)Nc1nc(N)c(-c2nc(-c3cc(NC(=O)c4cccc(OC)c4)c(F)cc3F)no2)s1` (stereo not drawn), 12%.
Take `COc1cc(/C=C/C(=O)Nc2cccc(-c3csc(-c4sc(Nc5cc(OC)c(OC)c(OC)c5)nc4N)n3)c2)cc(OC)c1OC`: the “% inhibition @ 150 nM” value under setting [8] is listed as 0%.
With `COc1cccc(C(=O)Nc2cc(-c3csc(-c4sc(NC(=O)NC(C)CO)nc4N)n3)c(F)cc2F)c1` (stereo not drawn), the inhibition at 0.05 µM under setting [7] worked out at 98%.
Consider `COc1cc(Nc2nc(N)c(-c3nc(-c4cccc(NC(=O)c5cn(Cc6ccccc6)c6ccccc56)c4)cs3)s2)cc(OC)c1OC`, for which the inhibition at 0.15 µM under setting [8] was -11%.
For the molecule `COc1cc(Nc2nc(N)c(-c3nc(-c4cc(NC(=O)C5CCCN5C(C)=O)ccc4C)no3)s2)cc(OC)c1OC` (stereo not drawn), the inhibition at 0.001 µM under setting [5] is -13%. Also, the inhibition at 0.01 µM under setting [6] is -24%.
On to `COc1cccc(C(=O)Nc2cccc(-c3csc(-c4sc(NC(=O)NCCCN5CCN(C)CC5)nc4N)n3)c2)c1`, for which the inhibition at 0.01 µM under setting [1] is -9%. Besides, under setting [2], the inhibition at 0.05 µM came to 67%.
Regarding `COc1cc(Nc2nc(N)c(-c3nc(-c4cccc(NC(=O)c5ccc(C(C)C)cc5)c4)cs3)s2)cc(OC)c1OC` [drawing 1003], where the note is “crude combinatorial amide library, 0.15 µM”, the “% inhibition @ 150 nM” value was found to be 17%.
With `CCC(C)CC(=O)Nc1cccc(-c2csc(-c3sc(Nc4cc(OC)c(OC)c(OC)c4)nc3N)n2)c1` (stereo not drawn), the inhibition at 0.15 µM under setting [8] is -3%.
On the same count and under the same terms, the figure for `COc1cc(Nc2nc(N)c(-c3nc(-c4cccc(NC(=O)Cc5ccc(Cl)cc5)c4)cs3)s2)cc(OC)c1OC` is -7%; for `COc1cc(Nc2nc(N)c(-c3nc(-c4cccc(NC(=O)c5ccc(C(=O)c6ccccc6)cc5)c4)cs3)s2)cc(OC)c1OC` it is 7%.
For the molecule `COc1cccc(C(=O)Nc2cccc(-c3csc(-c4sc(NC(=O)NCC(C)(C)N)nc4N)n3)c2)c1`, under setting [1], the inhibition at 0.01 µM stood at 14%. For the same molecule, the inhibition at 0.05 µM under setting [2] is 3%.
Turning to `COc1cccc(C(=O)Nc2cc(-c3noc(-c4sc(NC(=O)NC(C)CN(C)C)nc4N)n3)c(F)cc2F)c1` (stereo not drawn), under setting [9], the inhibition at 0.05 µM amounted to 27%.
Consider `COc1cc(Nc2nc(N)c(-c3nc(-c4cc(NC(=O)c5cc(C)nn5C)ccc4C)no3)s2)cc(OC)c1OC`, for which, under setting [5], the inhibition at 0.001 µM was -23%. In addition, under setting [6], the inhibition at 0.01 µM came out at 109%.
The matching figures for `COc1cc(Nc2nc(N)c(-c3nc(-c4cc(NC(=O)C[C@H](C)c5ccccc5)ccc4C)no3)s2)cc(OC)c1OC`: -30% and 24%.
For `COc1ccc(CC(=O)Nc2cccc(-c3csc(-c4sc(Nc5cc(OC)c(OC)c(OC)c5)nc4N)n3)c2)cc1`, the “% inhibition @ 150 nM” value under setting [8] is 0%.
Regarding `CNC(=O)Nc1nc(N)c(-c2nc(-c3cccc(NC(=O)c4cc(C)nn4C)c3)cs2)s1`, under setting [3], the inhibition at 0.001 µM stood at 10%. Further, under setting [4], the inhibition at 0.01 µM turned out to be 39%.
Take `CCC(O)CNC(=O)Nc1nc(N)c(-c2nc(-c3cc(NC(=O)c4cccc(OC)c4)c(F)cc3F)cs2)s1` (stereo not drawn): the inhibition at 0.05 µM under setting [7] was determined as 104%.
`COc1cccc(C(=O)Nc2cc(-c3noc(-c4sc(NC(=O)NCC(=N)N)nc4N)n3)c(F)cc2F)c1`: under setting [9], the inhibition at 0.05 µM came out at 65%.
Take `COc1cccc(C(=O)Nc2cccc(-c3csc(-c4sc(NC(=O)NCCCn5ccnc5)nc4N)n3)c2)c1`: the inhibition at 0.01 µM under setting [1] is 9%. Also, the inhibition at 0.05 µM under setting [2] turned out to be 39%.
In the same order, the values of `COc1cccc(C(=O)Nc2cccc(-c3csc(-c4sc(NC(=O)NCc5ccccc5)nc4N)n3)c2)c1` are -11% and 114%.
`COc1cc(Nc2nc(N)c(-c3nc(-c4cccc(NC(=O)c5csc(-c6cccnc6)n5)c4)cs3)s2)cc(OC)c1OC`: under setting [8], the inhibition at 0.15 µM turned out to be 38%.
Still for that read-out and setting: the figure for `COc1cc(Nc2nc(N)c(-c3nc(-c4cccc(NC(=O)C(=O)Cc5ccccc5)c4)cs3)s2)cc(OC)c1OC` is 20%.
Regarding `CNC(=O)Nc1nc(N)c(-c2nc(-c3cccc(NC(=O)/C=C/C4C[C@H]5C=C[C@@H]4C5)c3)cs2)s1` (stereo partly drawn), under setting [3], the inhibition at 0.001 µM came out at 11%. The inhibition at 0.01 µM under setting [4] is 50%.
As for `COc1cccc(C(=O)Nc2cc(-c3noc(-c4sc(NC(=O)NCCc5ccncc5)nc4N)n3)c(F)cc2F)c1`, the inhibition at 0.05 µM under setting [9] stood at 99%.
Same read-out and setting: the figure for `COc1cccc(C(=O)Nc2cc(-c3noc(-c4sc(NC(=O)N[C@@H](CO)C(N)=O)nc4N)n3)c(F)cc2F)c1` is 59%.
On to `COc1cc(Nc2nc(N)c(-c3nc(-c4cc(NC(=O)C5CC[C@H]6C=C[C@@H]5C6)ccc4C)no3)s2)cc(OC)c1OC` (stereo partly drawn), for which the inhibition at 0.001 µM under setting [5] was -2%. For the same molecule, under setting [6], the inhibition at 0.01 µM is 33%.
With `CNC(=O)Nc1nc(N)c(-c2nc(-c3cccc(NC(=O)C4C(C)(C)C4(C)C)c3)cs2)s1`, the inhibition at 0.001 µM under setting [3] was determined as 11%. Besides, under setting [4], the inhibition at 0.01 µM was 21%.
As for `COc1cccc(C(=O)Nc2cc(-c3noc(-c4sc(NC(=O)N[C@@H](CC(N)=O)C(N)=O)nc4N)n3)c(F)cc2F)c1`, under setting [9], the inhibition at 0.05 µM is 86%.
For `COc1cccc(C(=O)Nc2cc(-c3csc(-c4sc(NC(=O)NCCN(C(C)C)C(C)C)nc4N)n3)c(F)cc2F)c1`, the inhibition at 0.05 µM under setting [7] is 82%.
On to `COc1cc(Nc2nc(N)c(-c3nc(-c4cc(NC(=O)[C@H](C)C(C)C)ccc4C)no3)s2)cc(OC)c1OC`, for which the inhibition at 0.001 µM under setting [5] is -8%. Further, the inhibition at 0.01 µM under setting [6] is -18%.
Regarding `CNC(=O)Nc1nc(N)c(-c2nc(-c3cccc(NC(=O)CC4=CCCCC4)c3)cs2)s1`, the inhibition at 0.001 µM under setting [3] came to 29%. Under setting [4], the inhibition at 0.01 µM came out at 82%.
In the case of `COc1cccc(C(=O)Nc2cc(-c3csc(-c4sc(NC(=O)NCCOCCO)nc4N)n3)c(F)cc2F)c1` [drawing 699], the inhibition at 0.05 µM under setting [7] was determined as 98%.
In the case of `COc1cc(Nc2nc(N)c(-c3nc(-c4cccc(NC(=O)c5cnc6ccccc6c5)c4)cs3)s2)cc(OC)c1OC` [drawing 896], under setting [8], the inhibition at 0.15 µM is 42%.
In the case of `CNC(=O)Nc1nc(N)c(-c2nc(-c3cccc(NC(=O)c4cccc(OC)c4)c3)cs2)s1` [drawing 1034], under setting [3], the inhibition at 0.001 µM was found to be 2%. In addition, the inhibition at 0.01 µM under setting [4] was determined as 91%.
In the case of `COc1cc(CCC(=O)Nc2cccc(-c3csc(-c4sc(Nc5cc(OC)c(OC)c(OC)c5)nc4N)n3)c2)cc(OC)c1OC`, under setting [8], the “% inhibition @ 150 nM” value worked out at 0%.
`COc1cc(Nc2nc(N)c(-c3nc(-c4cc(NC(=O)C5CC[C@H]6CC(O)CC[C@@H](C5)C6)ccc4C)no3)s2)cc(OC)c1OC` (stereo partly drawn): the inhibition at 0.001 µM under setting [5] came to 7%. Further, the inhibition at 0.01 µM under setting [6] worked out at 20%.
Turning to `COc1cc(Nc2nc(N)c(-c3nc(-c4cc(NC(=O)c5cccc6[nH]ccc56)ccc4C)no3)s2)cc(OC)c1OC`, the inhibition at 0.001 µM under setting [5] was found to be 13%. Under setting [6], the inhibition at 0.01 µM amounted to 72%.
As for `CNC(=O)CNC(=O)Nc1nc(N)c(-c2nc(-c3cc(NC(=O)c4cccc(OC)c4)c(F)cc3F)cs2)s1`, the inhibition at 0.05 µM under setting [7] came out at 73%.
`COc1cc(Nc2nc(N)c(-c3nc(-c4cccc(NC(=O)c5ccc(N(C)C)cc5)c4)cs3)s2)cc(OC)c1OC`: under setting [8], the inhibition at 0.15 µM stood at 0%.
On to `COc1cccc(C(=O)Nc2cc(-c3csc(-c4sc(NC(=O)NCCS(=O)(=O)O)nc4N)n3)c(F)cc2F)c1`, for which, under setting [7], the inhibition at 0.05 µM was determined as 27%.
Regarding `COc1cccc(C(=O)Nc2cc(-c3csc(-c4sc(NC(=O)NCCCN5CCCCC5C)nc4N)n3)c(F)cc2F)c1` (stereo not drawn), the inhibition at 0.05 µM under setting [7] turned out to be 86%.
Regarding `COc1cc(Nc2nc(N)c(-c3nc(-c4cccc(NC(=O)CSc5ccncc5)c4)cs3)s2)cc(OC)c1OC`, under setting [8], the inhibition at 0.15 µM is -34%.
On to `CCN(CCNC(=O)Nc1nc(N)c(-c2nc(-c3cc(NC(=O)c4cccc(OC)c4)c(F)cc3F)cs2)s1)c1cccc(C)c1`, for which the inhibition at 0.05 µM under setting [7] turned out to be 18%.
Same read-out and setting: in the case of `COc1cccc(C(=O)Nc2cc(-c3csc(-c4sc(NC(=O)NCCc5ccc(N)cc5)nc4N)n3)c(F)cc2F)c1` it was 65%.
As to `COc1cccc(C(=O)Nc2cc(-c3noc(-c4sc(NC(=O)NCC(C)(C)N)nc4N)n3)c(F)cc2F)c1`, the inhibition at 0.05 µM under setting [9] came out at 14%.

The values are drawn from patent publication US6620828B2, “Thiazole compounds and pharmaceutical compositions for inhibiting protein kinases and methods for their use” (Agouron Pharmaceuticals, Inc., priority 1999, dated 2003).
